The text below walks through data of patent US20050257280A1, “Nonhuman model animal nonresponsive to endotoxin and lipoprotein or lipopeptide” (priority 2002, published 2005).

Format in all cases: cell-based, mouse
Assay [1] relates to splenocytes from wild-type and TIRAP−/− mice. Nature of the assay: Proliferation of splenocytes in the presence of IL-1, PHA or both ([3H]-thymidine uptake). To be noted: 100 U/ml IL-1β, 10 ng/ml PHA, 72 hr + 12 hr. From the text: As shown in MyD88-, TRAF6-, and IRAK-4-deficient mice, signaling pathway via IL-1 receptor family utilizes the same signaling pathway as that of TLRs (Adachi et. al., Immunity. 9, 143-150, 1998; Lomaga et al., Gene Dev. 13, 1015-24, 1999; Naito et al., Gene Cells 4, 353-62, 1999; Suzuki et al., Nature 416, 750-56, 2002). To investigate the proliferation of splenocytes from TIRAP^−/− mice induced by IL-1 or Phytohemagglutinin (PHA) being co-stimulatory substance with IL-1, splenocytes from wild-type and TIRAP^−/− mice were cultured for 72 hr and proliferated in the presence of 100 U/ml of IL-1β, and of 10 ng/ml of PHA, and in the co-presence of IL-1β and PHA, then supplemented with 1 μCi of [^3H]-thymidine, further cultured for 12 hr, and measured the uptake of [^3H] with a β scintillation counter. Proliferation of splenocytes was determined by measuring the [^3H] level of [^3H] thymidine ingested into a cell.

The subject of a further assay is ERK1/2, JNK and p38. Briefly: Activation of MAP kinases in peritoneal macrophages (Western blot). To be noted: LPS 100 ng/ml, MALP-2 3 ng/ml, R848 100 nM, 10 min and 20 min. As for the experimental part:
Next, peritoneal macrophages from wild-type and TIRAP^−/− mice were stimulated with 100 ng/ml of LPS, 3 ng/ml of MALP-2, and 100 nM of R848 for 10 min and 20 min, respectively. The cells were then lysed in the lysis buffer containing 1.0% Nonidet P-40, 150 mM NaCl, 20 mM tris-C1 (pH 7.5), 5 mM EDTA and protease inhibitor cocktail (Roche). The cell lysates were dissolved by SDS-PAGE and transferred onto a PVDF membrane (BioRad). The above-mentioned PVDF membrane was blotted with […] specific to ERK1/2, JNK, and p38 (Santa Cruz), and […] specific to phosphorylated ERK 1/2, phosphorylated JNK, and phosphorylated p38 (Cell Signaling) and Western blot analysis was conducted by visualizing with an enhanced chemiluminescence system (NEN Life Science Product) (FIG. 12). […] The result is quite similar to those observed in MyD88^−/− mice (Kawai et al.: Immunity 11: 115-22; 1999).
Background: A western blot detects proteins with antibodies after separation by electrophoresis.

For assay [2], the system named is peritoneal macrophages from wild-type and TIRAP−/− mice. Briefly: Inflammatory cytokine production of peritoneal macrophages (ELISA of culture supernatant). To be noted: LPS 1 ng/ml 24 hr, MALP-2 and PGN at various concentrations. As for the experimental part: Next, LPS-induced inflammatory cytokine production of peritoneal macrophages from wild-type and TIRAP^−/− mice was analyzed. 2 ml of 4% thioglycollate medium (DIFCO) were intraperitoneally injected into TIRAP^−/− and wild-type mice, respectively. Three days later, peritoneal exudate cells were isolated from peritoneal cavity of each mouse. The cells were cultured for 2 hr at 37° C. in RPMI 1640 medium (GIBCO) supplemented with 10% fetal bovine serum (GIBCO), nonadherent cells were removed by washing with Hank's buffered salt solution: HBSS; GIBCO) at ice temperature, and adherent cells were used as peritoneal macrophages. Each obtained peritoneal macrophage was cultured with 1 ng/ml of Re-595 LPS for 24 hr, and concentration of IL-6, TNF-α and IL-12 in the culture supernatant was measured according to a common procedure by ELISA (FIG. 7; means±SD of triplicates, N.D. Not detected).
IL-6, TNF-α and IL-12 in the culture supernatant were measured using mycoplasmal lipopeptide MALP-2 being TLR2 ligand (synthesized and purified as described in Takeuchi-MALP) and Staphylococcus aureus peptidoglycan (PGN) (Fluka) at various concentrations (FIG. 9). […] Next, peritoneal macrophages of wild-type and TIRAP^−/− mice were stimulated with Poly I:C being TLR3 ligand (Amersham) for 4 hr and 8 hr. Total RNA was extracted, and the expression of IFN-β mRNA was analyzed by Northern blot method. […]

The subject of another assay is NF-κB. Nature of the assay: NF-κB DNA binding in nuclear extracts of peritoneal macrophages (EMSA). To be noted: LPS 100 ng/ml, MALP-2 3 ng/ml, R-848 10 nM.
The test system of another assay is IRAK-1. Briefly: IRAK-1 in vitro kinase assay on lysates of stimulated peritoneal macrophages. As for the experimental part: IRAK-1 is activated in the downstream of MyD88. […] In vitro kinase assay was conducted as described previously (Sato et al. II), and kinase activation of IRAK-1 was measured. The same lysates were blotted with anti-IRAK-1 antibody, and the effect of IRAK-1 was analyzed (FIG. 13).

A further assay concerns IFN-β mRNA. Briefly: Expression of IFN-β mRNA in peritoneal macrophages (Northern blot). To be noted: stimulated 4 hr and 8 hr. The protocol:
IL-6, TNF-α and IL-12 in the culture supernatant were measured using mycoplasmal lipopeptide MALP-2 being TLR2 ligand (synthesized and purified as described in Takeuchi-MALP) and Staphylococcus aureus peptidoglycan (PGN) (Fluka) at various concentrations (FIG. 9). […] Next, peritoneal macrophages of wild-type and TIRAP^−/− mice were stimulated with Poly I:C being TLR3 ligand (Amersham) for 4 hr and 8 hr. Total RNA was extracted, and the expression of IFN-β mRNA was analyzed by Northern blot method. At that time, 18S ribosomal RNA was used as control. Expression of IFN-β mRNA was induced in both wild-type and TIRAP^−/− mice (FIG. 10).

[3] abbreviates: TIRAP−/− peritoneal macrophages.
[4] abbreviates: wild-type peritoneal macrophages.

Take Phytohemagglutinin [PHA]: the “proliferation of splenocytes (uptake of [3H]-thymidine)” value in assay [1] (TIRAP−/− splenocytes) and in assay [1] (wild-type splenocytes) was “enhanced proliferation” throughout.

For “IL-1: Interleukin-1 cytokine, used as IL-1β at 100 U/ml”, the “proliferation of splenocytes (uptake of [3H]-thymidine)” value in assay [1] (TIRAP−/− splenocytes) and in assay [1] (wild-type splenocytes) was “enhanced proliferation” in each case.

Regarding MALP-2, the “phosphorylation/activation of ERK1/2, JNK and p38” value was “not observed” in the assay on ERK1/2, JNK and p38 (TIRAP−/− macrophages); “phosphorylated and activation was induced” in the assay with ERK1/2, JNK and p38 (wild-type macrophages). Further, the entries for the “production of IL-6, TNF-α and IL-12” value in assay [2] (setting [3]) and in assay [2] (setting [4]) were “severely impaired” and “dose-dependent production”, respectively. The “NF-κB DNA binding effect” value in the assay on NF-κB (TIRAP−/− macrophages, LPS at 10 min) is given as “significantly inhibited”; in the assay on NF-κB (wild-type macrophages, LPS and MALP-2 at 10 min), “observed”. The “autophosphorylation (Auto) of IRAK-1” value in the assay on IRAK-1 (TIRAP−/− macrophages) is “not observed”; in the assay on IRAK-1 (wild-type macrophages), “induced autophosphorylation”.

With Poly I:C, the “expression of IFN-β mRNA” value with IFN-β mRNA (setting [3]) and in the assay with IFN-β mRNA (setting [4]) was “induced” throughout.

Consider `CCOCc1nc2c(N)nc3ccccc3c2n1CC(C)(C)O` [R-848], for which the “phosphorylation/activation of ERK1/2, JNK and p38” value with ERK1/2, JNK and p38 (wild-type macrophages) is “phosphorylated and activation was induced”. Besides, the “autophosphorylation (Auto) of IRAK-1” value in the assay with IRAK-1 (TIRAP−/− macrophages) is listed as “autophosphorylation was induced”; with IRAK-1 (wild-type macrophages), “induced autophosphorylation”.
